Numbered stars: 1 amine (or outer) side, 2 acyl side, 3 side chain; on linkers, the order of the positions; unused ones are H or OH. Square brackets hold non-standard residues; d marks the D form. Side chains are listed from the residue outwards. Peptide text beside a SMILES is read from it. * marks the point of attachment. γGlu = O=C(O)[C@H](CCC(=O)[*:2])N[*:1]; Palmitoyl = CCCCCCCCCCCCCCCC(=O)*; Aib = CC(C)(N)C(=O)O
What was measured:
[1] = system: female, diabetic db/db mice; test: Acute effects after subcutaneous treatment on blood glucose in non-fasting diabetic db/db mice; assay type: in vivo, mouse; conditions: for Blood glucose AUC compared to the Diabetic-Vehicle group: 24 h; for Plasma glucose area under the curve (mmol/L in 24 h): once 30 μg/kg s.c., mean ± SEM
Protocol: Female healthy, lean BKS.Cg-(lean)/OlaHsd and diabetes-prone, obese BKS.Cg-+Lepr^db/+Lepr^db/OlaHsd mice were ordered group housed from Envigo RMS Inc., shipped group housed and remained group housed in shoebox caging with wood chip bedding until day 15 of the predose phase. At the study start mice were approximately 12 weeks old.
Mice were housed under vivarium conditions including a 12 h light/dark cycle (light phase 04:00 AM-4:00 PM), room temperatures between 23-26° C. and a relative humidity between 30-70%. All animals had free access to water and Purina Fomulab Diet 5008.
On predose day 9 blood glucose and body mass (approximately between 08:00-10:00 AM) as well as HbA1c measurements were performed. On day 15 of the predose phase animals were assigned to treatment groups (n=8) and to new cages to match mean HbA1c and body masses between all db/db groups. An age-matched lean group was included in the study as a healthy, lean reference.
Prior to day 1 of the dosing phase, the test article was diluted with Phosphate Buffered Saline (PBS, Gibco, without CaCl2 and MgCl2) to a concentration of 1 mg/mL and aliquots of this stock solution were stored at approximately −60° C. On day 1 of the dosing phase the stock aliquot was thawed and the injected test article solution was prepared fresh by diluting it with PBS to achieve the desired concentration.
On Day 1 of the dosing phase db/db mice were either treated once with a s.c. injection of PBS-vehicle or 30 μg/kg test article. The lean reference group was treated once with a s.c. injection of PBS-vehicle. The dosing was initiated and completed between 08:00 and 10:00 AM. The applied volume was 5 ml/kg and the dose was adjusted to the most recent body mass recording of each individual.
Animals had unlimited access to water and feed during the experiment. On day 1 of the dosing phase approximately 5 μL of blood were collected via tail clips at minute −30 and 0 prior to any other inlife activities. At minute 0 mice received a s.c. dose of either PBS-vehicle or 30 μg/kg test article. Further blood samples were harvested at hour 0.25, 0.5, 1, 1.5, 2, 3, 4, 6, 8, and 24 post-dose. Glucose measurements were performed in whole blood using AlphaTRAK glucometers. If the glucose concentrations of two measurements differed by more than 20 mg/dL a third value was recorded. The Area Under the Curve (AUC) for blood glucose was calculated via the trapezoid method and for the duration of the 24 post-dose hours.
Data are depicted as means±SEM. […] A One-Way ANOVA and Tukey Test were used for pairwise multiple comparisons of all groups (n=8/group, deviations from group size are indicated). […] Data from a Non-Diabetic-Vehicle group serve as a reference dataset for the normoglycemic, lean state.
Female, 12 weeks old, healthy, lean BKS.Cg-(lean)/OlaHsd or diabetes-prone, obese BKS.Cg-+Leprdb/+Leprdb/OlaHsd mice were treated once with a s.c. injection of PBS, 30 μg/kg SEQ ID NO: 6 or 30 μg/kg SEQ ID NO: 7. The dosing was initiated and completed between 08:00 and 10:00 AM. The applied volume was 5 ml/kg and the dose was adjusted to the most recent body mass recording of each individual. Diabetic db/db mice were HbA1c- and body mass-matched. The lean reference group was treated once with a s.c. injection of PBS-vehicle.
Animals had unlimited access to water and feed during the experiment. On day 1 of the dosing phase approximately 5 μL of blood were collected via tail clips at minute −30 and 0 prior to any other inlife activities. At minute 0 mice received a s.c. dose of either PBS-vehicle, 30 μg/kg SEQ ID NO: 6 or SEQ ID NO: 7. Further blood samples were harvested at minute 15, 30, 60, 90, 120, 150, 180, 240, 360, and 480 post-dose. Glucose measurements were performed in whole blood using AlphaTRAK glucometers. If the glucose concentrations of two measurements differed by more than 20 mg/dL a third value was recorded. […]

[2] = molecular target: T1, human GIP receptor (hGIP-R) (Homo sapiens, UniProt P48546); test: cAMP response (HTRF) of HEK-293 cells stably expressing human GIP receptor; assay type: cell-based; conditions: Table 8; cAMP formation
T1 construct: expressed in transfected cells; host or cells: HEK-293
T1 sequence (P48546 22-466): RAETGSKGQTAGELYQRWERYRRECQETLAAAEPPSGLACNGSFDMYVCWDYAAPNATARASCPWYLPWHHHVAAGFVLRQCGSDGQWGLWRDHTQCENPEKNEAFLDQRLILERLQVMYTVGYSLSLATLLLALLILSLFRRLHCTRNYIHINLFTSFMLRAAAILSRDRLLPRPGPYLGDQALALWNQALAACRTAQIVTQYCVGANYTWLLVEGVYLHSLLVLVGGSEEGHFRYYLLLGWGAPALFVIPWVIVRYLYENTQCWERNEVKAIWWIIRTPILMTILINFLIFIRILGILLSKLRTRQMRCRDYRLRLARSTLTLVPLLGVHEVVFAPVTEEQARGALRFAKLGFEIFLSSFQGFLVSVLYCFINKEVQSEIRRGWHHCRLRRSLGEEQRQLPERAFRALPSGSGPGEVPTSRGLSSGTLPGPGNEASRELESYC
Protocol: cAMP content of cells was determined using a kit from Cisbio Corp. (cat. no. 62AM4PEJ) based on HTRF (Homogenous Time Resolved Fluorescence). For preparation, cells were split into T175 culture flasks and grown overnight to near confluency in medium (DMEM/10% FBS). Medium was then removed and cells washed with PBS lacking calcium and magnesium, followed by proteinase treatment with accutase (Sigma-Aldrich cat. no. A6964). Detached cells were washed and resuspended in assay buffer (1×HBSS; 20 mM HEPES, 0.1% BSA, 2 mM IBMX) and cellular density determined. They were then diluted to 400000 cells/ml and 25 μl-aliquots dispensed into the wells of 96-well plates. For measurement, 25 μl of test compound in assay buffer was added to the wells, followed by incubation for 30 minutes at room temperature.
Potencies of peptidic compounds at the GLP-1, glucagon and GIP receptors were determined by exposing cells expressing human glucagon receptor (hGlucagon R), human GIP receptor (hGIP-R) or human GLP-1 receptor (hGLP-1 R) to the listed compounds at increasing concentrations and measuring the formed cAMP as described in Methods.

[3] = 30 μg/kg s.c. once, fed db/db mice
[4] = 30 μg/kg s.c. once, fed db/db mice, in words

SMILES | Blood glucose AUC compared to the Diabetic-Vehicle group ([1]; 30 μg/kg s.c. once, in words) | Time post dose at which lowest blood glucose levels were reached [1, 3] | Blood glucose profile following single treatment [1, 4] | Plasma glucose area under the curve (mmol/L in 24 h) ([1]; Table 10, fed db/db mice) | EC50 [2] [pM] | Mean blood glucose concentrations twenty four hours post-dose [1, 4] | Plasma glucose area under the curve (mmol/L in 24 h) ([1]; Table 12, fed db/db mice)
CCCCCCCCCCCCCCCC(=O)N[C@@H](CCC(=O)N[C@@H](CCC(=O)NCCCC[C@H](NC(=O)[C@H](CC(C)C)NC(=O)[C@H](CCCCN)NC(=O)[C@H](CO)NC(=O)[C@H](CC(C)C)NC(=O)[C@H](CC(=O)O)NC(=O)[C@H](CO)NC(=O)[C@@H](NC(=O)[C@H](Cc1ccccc1)NC(=O)[C@@H](NC(=O)CNC(=O)[C@H](CCC(N)=O)NC(=O)C(C)(C)NC(=O)[C@@H](N)Cc1c[nH]cn1)[C@@H](C)O)[C@@H](C)O)C(=O)N[C@@H](CCC(=O)O)C(=O)N[C@@H](CCCCN)C(=O)N[C@@H](CCC(N)=O)C(=O)N[C@@H](CCCNC(=N)N)C(=O)N[C@@H](CCC(N)=O)C(=O)NC(C)(C)C(=O)N[C@@H](CCC(=O)O)C(=O)N[C@@H](Cc1ccccc1)C(=O)N[C@H](C(=O)N[C@@H](CCC(=O)O)C(=O)N[C@@H](Cc1c[nH]c2ccccc12)C(=O)N[C@@H](CC(C)C)C(=O)N[C@@H](CCCCN)C(=O)N[C@@H](C)C(=O)N[C@H](C)C(=O)NCC(=O)N1CCC[C@H]1C(=O)N1CCC[C@H]1C(=O)N[C@@H](CO)C(=O)NC(C)(C)C(=O)N[C@@H](CCCCN)C(=O)N1CCC[C@H]1C(=O)N1CCC[C@H]1C(=O)N1CCC[C@H]1C(=O)N[C@@H](CCCCN)C(N)=O)[C@@H](C)CC)C(=O)O)C(=O)O [SEQ ID NO: 7, H-Aib-Q-G-T-F-T-S-D-L-S-K-L-K[gGlu-gGlu-Palm]-E-K-Q-R-Q-Aib-E-F-I-E-W-L-K-A-dAla-G-P-P-S-Aib-K-P-P-P-K-NH2] (H-H[Aib]QGTFTSDLSKLK([γGlu-γGlu-Palmitoyl])EKQRQ[Aib]EFIEWLKA[dA]GPPS[Aib]KPPPK-NH2) | statistically significant reduction in the blood glucose AUC | approximately 8 hours | acute decrease in blood glucose concentrations | +461.54 ± 39.43 mmol/L in 24 h | – | – | –
CCCCCCCCCCCCCCCC(=O)N[C@@H](CCC(=O)N[C@@H](CCC(=O)NCCCC[C@H](NC(=O)[C@H](CC(C)C)NC(=O)[C@H](CCCCN)NC(=O)[C@H](CO)NC(=O)[C@H](CC(C)C)NC(=O)[C@H](CC(=O)O)NC(=O)[C@H](CO)NC(=O)[C@@H](NC(=O)[C@H](Cc1ccccc1)NC(=O)[C@@H](NC(=O)CNC(=O)[C@H](CCC(N)=O)NC(=O)C(C)(C)NC(=O)[C@@H](N)Cc1c[nH]cn1)[C@@H](C)O)[C@@H](C)O)C(=O)N[C@@H](CCC(=O)O)C(=O)N[C@@H](CCC(=O)O)C(=O)N[C@@H](CCC(N)=O)C(=O)N[C@@H](CCCNC(=N)N)C(=O)N[C@@H](CCC(N)=O)C(=O)NC(C)(C)C(=O)N[C@@H](CCC(=O)O)C(=O)N[C@@H](Cc1ccccc1)C(=O)N[C@H](C(=O)N[C@@H](CCC(=O)O)C(=O)N[C@@H](Cc1c[nH]c2ccccc12)C(=O)N[C@@H](CC(C)C)C(=O)N[C@@H](CCCCN)C(=O)N[C@@H](C)C(=O)NCC(=O)NCC(=O)N[C@@H](Cc1c[nH]cn1)C(=O)N1CCC[C@H]1C(=O)N[C@@H](CO)C(=O)NC(C)(C)C(=O)N[C@@H](CCCCN)C(=O)N1CCC[C@H]1C(=O)N1CCC[C@H]1C(=O)N1CCC[C@H]1C(=O)N[C@@H](CCCCN)C(N)=O)[C@@H](C)CC)C(=O)O)C(=O)O [SEQ ID NO: 8, H-Aib-Q-G-T-F-T-S-D-L-S-K-L-K[gGlu-gGlu-Palm]-E-E-Q-R-Q-Aib-E-F-I-E-W-L-K-A-G-G-H-P-S-Aib-K-P-P-P-K-NH2] | – | – | – | – | 5.6 | – | –
CCCCCCCCCCCCCCCC(=O)N[C@@H](CCC(=O)N[C@@H](CCC(=O)NCCCC[C@H](NC(=O)[C@H](CC(C)C)NC(=O)[C@H](CCCCN)NC(=O)[C@H](CO)NC(=O)[C@H](CC(C)C)NC(=O)[C@H](CC(=O)O)NC(=O)[C@H](CO)NC(=O)[C@@H](NC(=O)[C@H](Cc1ccccc1)NC(=O)[C@@H](NC(=O)CNC(=O)[C@H](CCC(N)=O)NC(=O)C(C)(C)NC(=O)[C@@H](N)Cc1c[nH]cn1)[C@@H](C)O)[C@@H](C)O)C(=O)N[C@@H](CCC(=O)O)C(=O)N[C@@H](CCCCN)C(=O)N[C@@H](CCC(N)=O)C(=O)N[C@@H](CCCNC(=N)N)C(=O)N[C@@H](CCC(N)=O)C(=O)NC(C)(C)C(=O)N[C@@H](CCC(=O)O)C(=O)N[C@@H](Cc1ccccc1)C(=O)N[C@H](C(=O)N[C@@H](CCC(=O)O)C(=O)N[C@@H](Cc1c[nH]c2ccccc12)C(=O)N[C@@H](CC(C)C)C(=O)N[C@@H](CCCCN)C(=O)N[C@@H](C)C(=O)N[C@H](C)C(=O)NCC(=O)N[C@@H](Cc1c[nH]cn1)C(=O)N1CCC[C@H]1C(=O)N[C@@H](CO)C(=O)NC(C)(C)C(=O)N[C@@H](CCCCN)C(=O)N1CCC[C@H]1C(=O)N1CCC[C@H]1C(=O)N1CCC[C@H]1C(=O)N[C@@H](CCCCN)C(N)=O)[C@@H](C)CC)C(=O)O)C(=O)O [SEQ ID NO: 13, H-Aib-Q-G-T-F-T-S-D-L-S-K-L-K[gGlu-gGlu-Palm]-E-K-Q-R-Q-Aib-E-F-I-E-W-L-K-A-dAla-G-H-P-S-Aib-K-P-P-P-K-NH2] (H-H[Aib]QGTFTSDLSKLK([γGlu-γGlu-Palmitoyl])EKQRQ[Aib]EFIEWLKA[dA]GHPS[Aib]KPPPK-NH2) | statistically significant reduction in the blood glucose AUC | approximately 8 hours | acute decrease in blood glucose concentrations | – | – | close to baseline | +458.34 ± 27.11 mmol/L in 24 h
